Among the data in PubChem BioAssay AID977627 (Broad Institute, 2014) are AC50 values, retold here.

Usually AC50 stands for the concentration giving half of the maximal activity seen.

For this test, the system named is E. coli H38 humanized ribosome GFP strain, fluorescence, 24 h. Description: E. coli strain growth, wild-type against H38 humanized mutant – H38 mutant GFP vs wild-type RFP, cherry-pick, dose response (AID 977627). Conditions: measured here: total growth OD600.

Inconclusive results are not listed. Some results are limits rather than exact numbers.

Compound `CC1(Cc2ccccc2C#N)C(=O)Nc2cc(-c3ccccc3Cl)ccc21` (configuration not stated) yielded an AC50 of 41.9 µM.

Consider `COC(=O)c1c(NC(=O)CCC(=O)O)sc(Cc2ccccc2)c1C`, for which the half-maximal activity concentration (AC50) is > 100 µM.
